This passage reports IC50 and viability, T/C results from PubChem BioAssay AID1845217 (Molecular Pharmacology Branch, DTP, NCI, 2023).

As usually defined, the IC50 is the concentration needed to halve the response being measured. What is called viability, T/C is the ratio of treated to control.

Values joined by “and” are separate entries in the source; they are usually repeats but may differ in a detail not shown here. Equal entries are not always repeated.

For this assay, the system named is VA-ES-BJ tumor spheroid viability. Briefly: Anticancer human tumor VA-ES-BJ cell line growth inhibition.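 For all read-outs here: spheroids exposed to compounds for seven days.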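 For viability, T/C: percent of DMSO vehicle control viability so 100% = untreated growth.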 Conditions: spheroids with HUVEC and MSC; for viability, T/C: stronger effect = lower value. Summed up:
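Single agents and combinations were tested on spheroids built from tumor cells plus HUVEC and hMSC, at half-log dilutions starting at or near clinical Cmax, else 10 microM; final DMSO 0.25% (v/v).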

As for `CNCc1ccc(-c2cc(-c3nc(-c4ccc(S(=O)(=O)C(C)C)cc4)cnc3N)on2)cc1` + COc1cc2c(cc1O)CCNC21CSC2c3c(OC(C)=O)c(C)c4c(c3C(COC1=O)N1C(O)C3Cc5cc(C)c(OC)c(O)c5C(C21)N3C)OCO4, the IC50 runs as follows: (curve of first compound, second compound 30 pM) 0.26 µM; (curve of first compound, second compound 94.9 pM) 0.122 µM; (curve of first compound, second compound 0.0003 µM) < 0.00949 µM; (curve of first compound, second compound 0.000949 µM) < 0.00949 µM; (curve of first compound, second compound 0.003 µM) < 0.00949 µM. The viability, T/C is 91.9% (second compound 30 pM, first compound 0.00949 µM); 90% (second compound 30 pM, first compound 0.03 µM); 82.8% (second compound 30 pM, first compound 0.0949 µM); 45.7% (second compound 30 pM, first compound 0.3 µM); 7.78% (second compound 30 pM, first compound 0.949 µM); 1.72% (second compound 30 pM, first compound 3 µM). Moreover, the viability, T/C is 85.9% (second compound 94.9 pM, first compound 0.00949 µM); 79.8% (second compound 94.9 pM, first compound 0.03 µM); 51.1% (second compound 94.9 pM, first compound 0.0949 µM); 34.1% (second compound 94.9 pM, first compound 0.3 µM); 6.4% (second compound 94.9 pM, first compound 0.949 µM); 1.3% (second compound 94.9 pM, first compound 3 µM). In addition, the viability, T/C reads like this: (second compound 0.0003 µM, first compound 0.00949 µM) 47.9%; (second compound 0.0003 µM, first compound 0.03 µM) 44.7%; (second compound 0.0003 µM, first compound 0.0949 µM) 36.5%; (second compound 0.0003 µM, first compound 0.3 µM) 23.9%; (second compound 0.0003 µM, first compound 0.949 µM) 5.48%; (second compound 0.0003 µM, first compound 3 µM) 1.1%. Further, the viability, T/C is 3.65% (second compound 0.000949 µM, first compound 0.00949 µM); 3.36% (second compound 0.000949 µM, first compound 0.03 µM); 4.65% (second compound 0.000949 µM, first compound 0.0949 µM); 1.83% (second compound 0.000949 µM, first compound 0.3 µM); 0.95% (second compound 0.000949 µM, first compound 0.949 µM); 1.89% (second compound 0.000949 µM, first compound 3 µM). Moreover, the viability, T/C was 1.45% (second compound 0.003 µM, first compound 0.00949 µM); 1.2% (second compound 0.003 µM, first compound 0.03 µM); 0.99% (second compound 0.003 µM, first compound 0.0949 µM); 1.37% (second compound 0.003 µM, first compound 0.3 µM); 1.15% (second compound 0.003 µM, first compound 0.949 µM); 0.13% (second compound 0.003 µM, first compound 3 µM).
In the case of `CC(C)n1c(=O)n(C)c2cnc3cc(F)c(-c4ccc(OCCCN5CCCCC5)nc4)cc3c21` + Cn1nnc2c(C(N)=O)ncn2c1=O, the IC50 (curve of first compound, second compound 1 µM) was > 10 µM; the IC50 (curve of first compound, second compound 3.16 µM) is > 10 µM; the IC50 (curve of first compound, second compound 10 µM) was > 10 µM; the IC50 (curve of first compound, second compound 31.6 µM) was > 10 µM; the 50% inhibitory concentration (IC50) (curve of first compound, second compound 100 µM) is > 10 µM. Besides, the viability, T/C (second compound 1 µM, first compound 0.0316 µM) was 93%; the viability, T/C (second compound 1 µM, first compound 0.1 µM) is 92.2%; the viability, T/C (second compound 1 µM, first compound 0.316 µM) is 93%; the viability, T/C (second compound 1 µM, first compound 1 µM) was 105%; the viability, T/C (second compound 1 µM, first compound 3.16 µM) was 110%; the viability, T/C (second compound 1 µM, first compound 10 µM) is 77.8%. In addition, the viability, T/C was 94% (second compound 3.16 µM, first compound 0.0316 µM); 86.3% (second compound 3.16 µM, first compound 0.1 µM); 93.3% (second compound 3.16 µM, first compound 0.316 µM); 110% (second compound 3.16 µM, first compound 1 µM); 111% (second compound 3.16 µM, first compound 3.16 µM); 55.6% (second compound 3.16 µM, first compound 10 µM). Besides, the viability, T/C reads like this: (second compound 10 µM, first compound 0.0316 µM) 92.2%; (second compound 10 µM, first compound 0.1 µM) 94.3%; (second compound 10 µM, first compound 0.316 µM) 88%; (second compound 10 µM, first compound 1 µM) 103%; (second compound 10 µM, first compound 3.16 µM) 111%; (second compound 10 µM, first compound 10 µM) 62.1%. The viability, T/C was 80.6% (second compound 31.6 µM, first compound 0.0316 µM); 100% (second compound 31.6 µM, first compound 0.1 µM); 103% (second compound 31.6 µM, first compound 0.316 µM); 103% (second compound 31.6 µM, first compound 1 µM); 113% (second compound 31.6 µM, first compound 3.16 µM); 53.3% (second compound 31.6 µM, first compound 10 µM). Moreover, the viability, T/C is, setting by setting: (second compound 100 µM, first compound 0.0316 µM) 103%; (second compound 100 µM, first compound 0.1 µM) 102%; (second compound 100 µM, first compound 0.316 µM) 106%; (second compound 100 µM, first compound 1 µM) 116%; (second compound 100 µM, first compound 3.16 µM) 109%; (second compound 100 µM, first compound 10 µM) 101%.
For the compound `O=C(c1cc(Cc2n[nH]c(=O)c3ccccc23)ccc1F)N1CCN(C(=O)C2CC2)CC1`, the viability, T/C reads like this: (compound 0.0949 µM) 113% and 96.3% and 94.1%; (compound 0.3 µM) 98.4% and 84.9% and 93.2%; (compound 0.949 µM) 101% and 89.1% and 92.5%; (compound 3 µM) 98.7% and 88% and 87%; (compound 9.49 µM) 74.6% and 71.3% and 67.4%; (compound 30 µM) 67.4% and 52.5% and 47.3%. In addition, the IC50 (curve of compound) is > 30 µM and 25.8 µM.
In the case of `[2H]c1nc(C)nc([2H])c1-c1cc(NC[C@@H](C)c2cccc3c(C(=O)NC)ccnc23)ncn1`, the viability, T/C by setting is: (compound 0.0316 µM) 70.8% and 104% and 89.9%; (compound 0.1 µM) 77.2% and 94.7% and 88.6%; (compound 0.316 µM) 80% and 92.6% and 90.8%; (compound 1 µM) 79.4% and 104% and 99.8%; (compound 3.16 µM) 86.9% and 95.6% and 103%; (compound 10 µM) 83.2% and 99.6% and 104%. In addition, the IC50 (curve of compound) is > 10 µM.
